The results in this text go back to ChEMBL document CHEMBL3352687, “Synthesis of N-glycan units for assessment of substrate structural requirements of N-acetylglucosaminyltransferase III” (Bioorg Med Chem Lett, 2014).

The assay is described as follows: Competitive inhibition of human N-terminally His6-tagged N-acetylglucosaminyltransferase 3 expressed in HEK293T cells assessed as GN-GnGnbi-PAs molar ratio level at 100 to 500 uM incubated for 4 hrs using GnGnbi-PA acceptor substrate and UDP-GlcNAc donor substrate by reverse phase HPLC method. The conditions noted are these: HEK-293T.

Activity calls are given as the source filed them. The calls are words filed in the database; no cut-off is given here.

In the case of `CO[C@H]1O[C@H](CO[C@H]2O[C@H](CO)[C@@H](O)[C@H](O)[C@@H]2O[C@@H]2O[C@H](CO)[C@@H](O)[C@H](O)[C@H]2NC(C)=O)[C@@H](O[C@@H]2O[C@H](CO)[C@@H](O)[C@H](O)[C@H]2NC(C)=O)[C@H](O[C@H]2O[C@H](CO)[C@@H](O)[C@H](O)[C@@H]2O[C@@H]2O[C@H](CO)[C@@H](O)[C@H](O)[C@H]2NC(C)=O)[C@@H]1O`, the inhibition result was “Active”.

For `CO[C@H]1O[C@H](CO[C@H]2O[C@H](CO)[C@@H](O)[C@H](O)[C@@H]2O)[C@@H](O[C@@H]2O[C@H](CO)[C@@H](O)[C@H](O)[C@H]2NC(C)=O)[C@H](O[C@H]2O[C@H](CO)[C@@H](O)[C@H](O)[C@@H]2O)[C@@H]1O`, the inhibition result is “inactive”.

Regarding `CO[C@H]1O[C@H](CO[C@H]2O[C@H](CO)[C@@H](O)[C@H](O)[C@@H]2O[C@@H]2O[C@H](CO)[C@@H](O)[C@H](O)[C@H]2NC(C)=O)[C@@H](O)[C@H](O[C@H]2O[C@H](CO)[C@@H](O)[C@H](O)[C@@H]2O[C@@H]2O[C@H](CO)[C@@H](O)[C@H](O)[C@H]2NC(C)=O)[C@@H]1O`, the inhibition entry was “Active”.

`CO[C@H]1O[C@H](CO[C@H]2O[C@H](CO)[C@@H](O)[C@H](O)[C@@H]2O)[C@@H](O)[C@H](O[C@H]2O[C@H](CO)[C@@H](O)[C@H](O)[C@@H]2O)[C@@H]1O`: the inhibition result was “inactive”.
